Data from patent EP0311163A2, “Use of site-specific modified lipolytic enzymes for the selective hydrolysis of organized lipid structures” (DUPHAR INTERNATIONAL RESEARCH B.V, priority 1987, dated 1989).

Key:
Test in all cases: Kinetic measurement with micellar L-dioctanoyl-lecithin (Vmax)
Type in all cases: biochemical
Conditions in all cases: micellar substrate, titration of fatty acid with 10.3 mM NaOH at pH 6.0
[1] = system: Porcine pancreatic phospholipase A₂, [ε-Ac-Lys¹¹⁶]AMPA
Method: (§1) […]. A value of 8.8 is used for the N-terminal shortened bovine pancreas enzyme fragments missing Trp³. • b. The binding of the PLA's to micellar cis-9-octadecenyl phosphocholine is determined by means of UV absorption difference spectroscopy (De Aranjo et al., Biochem. 18, (1979), 580-586;; and Hille et al., Biochem. 20, (1981), 4068-4073). • c. Monolayer experiments are carried out using the zero order through with two compartments and the surface barostat technique for measuring phospholipid hydrolysis (Verger and De Haas, Chem. Phys. Lipids, 10, (1973), 127-136). Calculation of the induction time (τ) is carried out as described by Verger et al. J. Biol. Chem. 248 (1973), 4023-4034). Surface tension (π) is measured by means of the plate method by Wilhelmy using a thin platinum plate attached to a Beckman R II C Model LM 600 microbalance. • d. Kinetic measurements with micellar diC₈PC are carried out according to De Haas et al, Biochem. Biophys. Acta, 239, (1971) 252-266.
(§2) This means that the inherent catalytic activity of these pPLA's is not affected by the site-specific acylation. Although acylation of Lys¹¹⁶ with acetyl or maleyl results in a lower Vmax, the remaining activity is sufficient to hydrolyse micellar short chain lecithins effectively. TABLE A

[2] = biological target: T1, Porcine pancreatic phospholipase A₂, AMPA (fully ε-amidinated PLA) (Sus scrofa, UniProt P00592)
T1 construct: fully ε-amidinated according to the method by Wallace and Harris, Biochem. J., 217, (1984), 589-594, and converted into AMPA; from tissue; host or cells: pig pancreas; chemically amidinated as the pro-enzyme, then converted to the active enzyme
T1 sequence (P00592 23-146): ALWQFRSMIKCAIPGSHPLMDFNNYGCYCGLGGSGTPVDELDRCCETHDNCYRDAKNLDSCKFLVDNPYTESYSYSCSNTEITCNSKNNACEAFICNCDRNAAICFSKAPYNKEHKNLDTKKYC
Method: as §1, §2

[3] = biological target: T2, Bovine pancreatic phospholipase A₂ (PLA), native (Bos taurus, UniProt P00593)
T2 construct: pancreatic pro-PLA's can be purified and converted into the corresponding PLA's; from tissue; host or cells: bovine pancreas
T2 sequence (P00593 23-145): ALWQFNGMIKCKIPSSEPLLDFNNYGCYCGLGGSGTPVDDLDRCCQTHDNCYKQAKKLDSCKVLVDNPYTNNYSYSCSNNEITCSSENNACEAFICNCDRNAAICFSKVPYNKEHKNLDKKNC
Method: as §1, §2

[4] = system: Porcine pancreatic phospholipase A₂, [ε-Pal-Lys¹¹⁶]AMPA
Method: as §1, §2

[5] = biological target: T3, Bovine pancreatic phospholipase A₂, [Arg⁶]-AMPA (Bos taurus, UniProt P00593, N28R)
T3 construct: fully ε-amidinated according to the method by Wallace and Harris, Biochem. J., 217, (1984), 589-594, and converted into AMPA; from tissue; host or cells: bovine pancreas
T3 sequence (P00593 23-145 N28R): as the sequence (P00593 23-145) above, with N6R counted along it
Method: as §1, §2

[6] = system: Porcine pancreatic phospholipase A₂, [ε-Ol-Lys¹¹⁶]AMPA
Method: as §1, §2

[7] = system: Porcine pancreatic phospholipase A₂, [ε-NH₂-Lys¹¹⁶]AMPA
Method: as §1, §2

[8] = biological target: T4, Bovine pancreatic phospholipase A₂, AMPA (fully ε-amidinated PLA) (Bos taurus, UniProt P00593)
T4 construct: fully ε-amidinated according to the method by Wallace and Harris, Biochem. J., 217, (1984), 589-594, and converted into AMPA; from tissue; host or cells: bovine pancreas; chemically amidinated as the pro-enzyme, then converted to the active enzyme
T4 sequence (P00593 23-145): as the sequence (P00593 23-145) above
Method: as §1, §2

[9] = system: Porcine pancreatic phospholipase A₂, [ε-Cap-Lys¹¹⁶]AMPA
Method: as §1, §2

[10] = system: Porcine pancreatic phospholipase A₂, [ε-Mal-Lys¹¹⁶]AMPA
Method: as §1, §2

[11] = biological target: T5, Porcine pancreatic phospholipase A₂ (PLA), native (Sus scrofa, UniProt P00592)
T5 construct: pancreatic pro-PLA's can be purified and converted into the corresponding PLA's; from tissue; host or cells: pig pancreas
T5 sequence (P00592 23-146): as the sequence (P00592 23-146) above
Method: as §1, §2

[12] = biological target: T6, Bovine pancreatic phospholipase A₂, [Arg⁶,ε-Pal-Lys¹⁰]-AMPA (Bos taurus, UniProt P00593, N28R)
T6 construct: Conversion of fully ε-amidinated bovine pancreatic AMPrec in [Arg⁶, ε-Pal-Lys¹⁰]-AMPA; from tissue; host or cells: bovine pancreas; semisynthetic: amidinated fragment 11-123 re-elongated with Pal-Lys, Ile, Met and Ala.Leu.Trp.Gln.Phe.Arg.Gly
T6 sequence (P00593 23-145 N28R): as the sequence (P00593 23-145) above, with N6R counted along it
Method: as §1, §2

[13] = system: Porcine pancreatic phospholipase A₂, [ε-Lau-Lys¹¹⁶]AMPA
Method: as §1, §2

For CCCCCCCC(=O)OC[C@H](COP(=O)([O-])OCC[N+](C)(C)C)OC(=O)CCCCCCC [L-dioctanoyl-lecithin, 1,2-dioctanoyl-sn-glycero-3-phosphocholine], the “Vmax micellar L-dioctanoyl-lecithin” value [1] was 755 µequiv. min⁻¹ mg⁻¹, the “Vmax micellar L-dioctanoyl-lecithin” value [2] was 1650 µequiv. min⁻¹ mg⁻¹ and the “Vmax micellar L-dioctanoyl-lecithin” value [3] was 3000 µequiv. min⁻¹ mg⁻¹. For the same compound, the “Vmax micellar L-dioctanoyl-lecithin” value [4] was 2200 µequiv. min⁻¹ mg⁻¹, the “Vmax micellar L-dioctanoyl-lecithin” value [5] was 5900 µequiv. min⁻¹ mg⁻¹ and the “Vmax micellar L-dioctanoyl-lecithin” value [6] was 2600 µequiv. min⁻¹ mg⁻¹. For the same compound, the “Vmax micellar L-dioctanoyl-lecithin” value [7] was 2000 µequiv. min⁻¹ mg⁻¹, the “Vmax micellar L-dioctanoyl-lecithin” value [8] was 2300 µequiv. min⁻¹ mg⁻¹ and the “Vmax micellar L-dioctanoyl-lecithin” value [9] was 2100 µequiv. min⁻¹ mg⁻¹. For the same compound, the “Vmax micellar L-dioctanoyl-lecithin” value [10] was 405 µequiv. min⁻¹ mg⁻¹, the “Vmax micellar L-dioctanoyl-lecithin” value [11] was 2200 µequiv. min⁻¹ mg⁻¹ and the “Vmax micellar L-dioctanoyl-lecithin” value [12] was 5600 µequiv. min⁻¹ mg⁻¹. The “Vmax micellar L-dioctanoyl-lecithin” value [13] was 2500 µequiv. min⁻¹ mg⁻¹.
